Laboratory results reported in patent US20150219624A1, “METHODS FOR IDENTIFYING ANTI-CANCER COMPOUNDS” (MEMORIAL SLOAN KETTERING CANCER CENTER, priority 2013, published 2015).

Key:
[1] = tested on: cap-dependent translation; assay: Dual-luciferase reporter assay (capped vs IRES-driven luciferase); type: cell-based; conditions: renilla and firefly luciferase either capped or under control of an IRES element
Method: Luciferase assays. Four tandem repeats of the (CGG)4 12-mer motif (GQs) or random sequence matched for length and GC content (random) were cloned into the 5′UTR of Renilla luciferase plasmid pGL4.73. Empty firefly luciferase plasmid pGL4.13 or HCV-IRES firefly were used as internal controls. Luciferase assays were performed using Dual-Luciferase Reporter Assay System (Promega E1960) following the manufacturer's instructions. GQs sequence: […]

KOPTK1 cells = assay: Metabolic labeling of nascent protein with L-azidohomoalanine (AHA); type: cell-based, human; conditions: 100 nM; p vs. vehicle 2×10−4
Method: (Non-radioactive) Metabolic labeling of nascent protein. KOPTK1 cells were labeled for nascent protein synthesis using Click-iTR AHA (L-azidohomoalanine) metabolic labeling reagent obtained from Invitrogen (cat no. C10102) as per manufacturer's instructions. Briefly, following silvestrol, Cycloheximide or DMSO treated cells were incubated in methionine free medium for 30 min prior to AHA labeling for 1 hr. Cells were fixed with 4% paraformaldehyde in PBS for 15 min, permeablized with 0.25% Triton X-100 in PBS for 15 min followed by one wash with 3% BSA. Cells were then stained using Alexa Fluor 488 Alkyne (Invitrogen cat no. A10267) with Click-iT Cell reaction Buffer Kit (Invitrogen cat no. C10269). Changes in mean fluorescence intensity as a measure of newly synthesized protein was detected by Flow cytometry analysis.
The number of ribosomes occupying a given transcript is given as gene specific RF reads per one million total reads (RPM).
FIG. 10 depicts ribosome profiling quality control data and effects on translation. A and B) Read counts by length of mapped sequence before and after filtering rRNA, linker reads, non-coding RNAs, short mapped sequences (“noisy” reads; see text and method for details). C and D) Read length frequency histograms and mapping analysis of ribosome footprint data after quality control filtering for vehicle treated cells (C) or silvestrol treated cells (D). […]

SMILES	block of cap-dependent versus IRES-dependent translation [1]	max. reduction of nascent protein synthesis (AHA labeling) (KOPTK1 cells) [%]
CC(/C=C/C(C)=C/[C@@H]1Cc2nc(cs2)[C@@H](C)C[C@@H](N)CC(=O)O[C@@H](C)C/C(C)=C/C=C\C(=O)O1)=C\CN(C)C [pateamine A, (3S,6Z,8E,11S,15R,17S)-15-amino-3-[(1E,3E,5E)-7-(dimethylamino)-2,5-dimethylhepta-1,3,5-trienyl]-9,11,17-trimethyl-4,12-dioxa-20-thia-21-azabicyclo[16.2.1]henicosa-1(21),6,8,18-tetraene-5,13-dione]	preferentially block cap-dependent over IRES-dependent translation	
C[C@@H]1C[C@@H]([C@H](O)CC2CC(=O)NC(=O)C2)C(=O)[C@@H](C)C1 [cycloheximide, Cycloheximide]		80
C[C@H]1C[C@@]2(O[C@H]3C[C@H]4[C@@H]5CC[C@H]6C[C@H](O)CC[C@]6(C)[C@H]5[C@@H](O)C[C@]4(C)[C@H]3[C@@]2(C)O)OC1(C)C [hippuristanol]	preferentially block cap-dependent over IRES-dependent translation	
